Assay results taken from PubChem BioAssay (NCI).
“And” between values parts separate entries of the source, which are not always exact repeats. Equal entries are not always repeated.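 48-hour exposure; five concentrations; linearly interpolated endpoints. GI50: concentration for 50% inhibition of growth. TGI: concentration producing complete growth inhibition.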

Experiments:
Assay in all cases: NCI anticancer screen, dose series, 48 h
COLO 205 colon = test system: COLO 205 colon
HCT-116 colon = test system: HCT-116 colon
HL-60(TB) leukemia = test system: HL-60(TB) leukemia
LOX IMVI melanoma = test system: LOX IMVI melanoma
NCI-H460 lung = test system: NCI-H460 lung
OVCAR-4 ovarian = test system: OVCAR-4 ovarian
OVCAR-5 ovarian = test system: OVCAR-5 ovarian
PC-3 prostate = test system: PC-3 prostate
SK-MEL-5 melanoma = test system: SK-MEL-5 melanoma
SNB-75 CNS = test system: SNB-75 CNS

Row | Structure (SMILES) | GI50 (COLO 205 colon) | TGI (COLO 205 colon) | GI50 (HCT-116 colon) | TGI (HCT-116 colon) | GI50 (HL-60(TB) leukemia) | TGI (HL-60(TB) leukemia) | GI50 (LOX IMVI melanoma) | TGI (LOX IMVI melanoma) | GI50 (NCI-H460 lung) | TGI (NCI-H460 lung) | GI50 (OVCAR-4 ovarian) | TGI (OVCAR-4 ovarian) | GI50 (OVCAR-5 ovarian) | TGI (OVCAR-5 ovarian) | GI50 (PC-3 prostate) | TGI (PC-3 prostate) | GI50 (SK-MEL-5 melanoma) | TGI (SK-MEL-5 melanoma) | GI50 (SNB-75 CNS) | TGI (SNB-75 CNS)
1 | CC(=O)[O][Bi]([c]1ccccc1)[c]1ccccc1 | 2.84 µM | 7.27 µM | 4.29 µM | 13.7 µM | 3.54 µM | 23.5 µM | 1.98 µM | 5.24 µM | 18.1 µM | 36.4 µM | 13.7 µM | 27 µM | 11.8 µM | 26.3 µM | 16.1 µM | 30.7 µM | 12.8 µM | 25.9 µM | 16.4 µM | 30.2 µM
2 | O=C(NCCCCCCNC(=O)OCc1ccc2c(Cl)cc(Cl)c(O)c2n1)OCc1ccc2c(Cl)cc(Cl)c(O)c2n1 | 0.589 µM | 2.19 µM | 0.209 µM | 0.693 µM | 0.771 µM | 4.29 µM | 0.325 µM | 1.1 µM | 1.23 µM | 3.12 µM | 0.707 µM | 2.04 µM | 1.5 µM | 3.01 µM | 0.815 µM | 2.42 µM | 1.54 µM | 2.88 µM | 0.567 µM | 2.08 µM
3 | C/C(=C\c1ccn(-c2ccc(N)cc2F)n1)[C@@H]1C[C@@H]2O[C@]2(C)CCC[C@H](C)[C@H](O)[C@@H](C)C(=O)C(C)(C)[C@@H](O)CC(=O)O1 | 0.0172 µM | 0.442 µM | 0.0169 µM | > 50 µM | 0.0174 µM | 0.859 µM | 0.0241 µM | > 50 µM | 0.0197 µM | > 50 µM | 0.4 µM | > 50 µM | 0.116 µM | > 50 µM | 0.0256 µM | > 50 µM | 0.0199 µM | – | 0.00766 µM | 0.206 µM
4 | CNC(=O)CN1CCC(Oc2cc3c(Nc4cccc(Cl)c4F)ncnc3cc2OC)CC1 | 13.9 µM and > 4.66 µM | 29 µM and > 8.92 µM | 14.8 µM and > 5.44 µM | 28.5 µM and > 10 µM | 26.9 µM and > 4.95 µM | > 65.4 µM | 8.12 µM and > 5.06 µM | 20.9 µM and > 10 µM | 28.1 µM and > 6.73 µM | > 100 µM | 20.1 µM and > 7.05 µM | 98.5 µM and > 10 µM | 1.9 µM and 1.56 µM | 22.4 µM and > 10 µM | 17.5 µM and > 8.3 µM | > 69.1 µM | 13.4 µM and 4.49 µM | 26.5 µM and > 10 µM | 2.09 µM and 1.84 µM | 10.8 µM and > 10 µM
5 | Clc1ccc2c(NCCNc3nc(N4CCCC4)nc4ccccc34)ccnc2c1 | 0.147 µM | 1.94 µM | 0.309 µM | 1.02 µM | 0.704 µM | 1.54 µM | 0.863 µM | 2.34 µM | 0.22 µM | 0.506 µM | 1.28 µM | 3.58 µM | 2.15 µM | 6.38 µM | 1.71 µM | 8.73 µM | 1.64 µM | 3.02 µM | 1.37 µM | 3 µM
6 | CCOC(=O)N1C=CC(=C2C(=C3C=CN(C(=O)OCC)C=C3)C(=C3C=CN(C(=O)OCC)C=C3)C2=C2C=CN(C(=O)OCC)C=C2)C=C1 | – | > 100 µM | – | 56.1 µM | – | > 100 µM | – | 45.8 µM | – | > 100 µM | – | > 100 µM | – | > 100 µM | – | 91.7 µM | – | > 100 µM | – | > 100 µM
7 | O=S(=O)(CCCCl)SCCCCl | – | > 69.2 µM | – | 51.1 µM | – | 24.5 µM | – | 40.6 µM | – | > 100 µM | – | 24.2 µM | – | > 94.3 µM | – | > 100 µM | – | > 94.1 µM | – | > 94 µM
8 | Cc1cc2nc(C(Cl)Cl)nc(-c3ccccc3)n2n1 | 1.77 µM | 4.56 µM | 3.45 µM | 24 µM | 2.38 µM | 6.35 µM | 24.4 µM | > 100 µM | 1.97 µM | 5.13 µM | 2.19 µM | 7.51 µM | 3.3 µM | 17.1 µM | 4.77 µM | 37.9 µM | 39.3 µM | > 100 µM | 1.75 µM | 12.9 µM
9 | Cn1c(=N)n[n+]([O-])c2ccccc21 | – | 5.3 µM and 5.52 µM | – | > 100 µM | – | 10.1 µM and 10.4 µM | – | > 100 µM | 2.59 µM and 20 µM | 4.53 µM and 37.5 µM | – | 7.55 µM and 5.23 µM | – | 3.83 µM and 7.61 µM | – | > 100 µM | – | 3.32 µM and 2.96 µM | – | 3.56 µM and 8.45 µM
10 | C[C@@H]1OCC2(CCN(c3cnc(Sc4ccnc(N)c4Cl)c(N)n3)CC2)[C@@H]1N | > 100 µM | > 100 µM | > 100 µM | > 100 µM | > 100 µM | > 100 µM | > 100 µM | > 100 µM | > 100 µM | > 100 µM | 26.9 µM | > 100 µM | > 100 µM | > 100 µM | > 100 µM | > 100 µM | > 93.3 µM | > 100 µM | 15.1 µM | > 100 µM
11 | Nc1ncnc2c1ncn2C1OC(COC2C(CO)OC(OC(C(=O)O)C(O)C(OP(=O)(O)O)C(O)C(=O)O)C(O)C2O)C(O)C1O (centres undefined) | – | > 100 µM | – | > 100 µM | – | > 100 µM | – | > 100 µM | – | > 100 µM | – | > 100 µM | – | > 100 µM | – | > 100 µM | – | > 100 µM | – | > 100 µM
12 | CC[CH2][Sn]([CH2]CC)([O]C(=O)Cc1ccc(F)cc1)[O][Sn]([CH2]CC)([CH2]CC)[O]C(=O)Cc1ccc(F)cc1 | 0.266 µM | 0.857 µM | 0.218 µM | 0.796 µM | 0.0888 µM | – | 0.0851 µM | 0.232 µM | 1.34 µM | 2.7 µM | 0.276 µM | 1.23 µM | 1.44 µM | 2.84 µM | 1 µM | 2.16 µM | 0.472 µM | 1.47 µM | 0.27 µM | 1.43 µM
13 | Nc1c2ccccc2nc2ccccc12 (tested in a mixture with another compound) | 0.753 µM | 2.08 µM | 0.849 µM | 8.48 µM | 3.24 µM | 8.04 µM | 1.87 µM | 5.94 µM | 2.12 µM | 8.99 µM | 1.84 µM | 6.9 µM | 2.96 µM | 13.4 µM | 2.44 µM | 11.1 µM | 1.6 µM | 3.01 µM | 3.18 µM | 8.44 µM
